Patent US20250282794A1 (CURADEV PHARMA LTD, priority 2022, published 2025)

target: recombinant full length HPK-1 enzyme (Homo sapiens (Human), UniProt Q92918); assay: HPK-1 biochemical enzyme assay (ADP-Glo kinase inhibition); conditions: recombinant full length HPK-1 6.8 nM, 10 μM ATP, 12.5 μM MBP, 30 mins at 25° C.
Method in brief: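 Recombinant full-length human HPK-1 (6.8 nM) incubated 30 min at 25° C. with 10 μM ATP and 12.5 μM swine MBP in 40 mM Tris pH 7.4, 20 mM MgCl2, 50 μM DTT, 0.1 mg/mL BSA. ADP measured by ADP-Glo; IC50 from 10 concentrations, normalized to no-enzyme and vehicle controls.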

Sequence of recombinant full length HPK-1 enzyme (Q92918 whole entry, species assumed): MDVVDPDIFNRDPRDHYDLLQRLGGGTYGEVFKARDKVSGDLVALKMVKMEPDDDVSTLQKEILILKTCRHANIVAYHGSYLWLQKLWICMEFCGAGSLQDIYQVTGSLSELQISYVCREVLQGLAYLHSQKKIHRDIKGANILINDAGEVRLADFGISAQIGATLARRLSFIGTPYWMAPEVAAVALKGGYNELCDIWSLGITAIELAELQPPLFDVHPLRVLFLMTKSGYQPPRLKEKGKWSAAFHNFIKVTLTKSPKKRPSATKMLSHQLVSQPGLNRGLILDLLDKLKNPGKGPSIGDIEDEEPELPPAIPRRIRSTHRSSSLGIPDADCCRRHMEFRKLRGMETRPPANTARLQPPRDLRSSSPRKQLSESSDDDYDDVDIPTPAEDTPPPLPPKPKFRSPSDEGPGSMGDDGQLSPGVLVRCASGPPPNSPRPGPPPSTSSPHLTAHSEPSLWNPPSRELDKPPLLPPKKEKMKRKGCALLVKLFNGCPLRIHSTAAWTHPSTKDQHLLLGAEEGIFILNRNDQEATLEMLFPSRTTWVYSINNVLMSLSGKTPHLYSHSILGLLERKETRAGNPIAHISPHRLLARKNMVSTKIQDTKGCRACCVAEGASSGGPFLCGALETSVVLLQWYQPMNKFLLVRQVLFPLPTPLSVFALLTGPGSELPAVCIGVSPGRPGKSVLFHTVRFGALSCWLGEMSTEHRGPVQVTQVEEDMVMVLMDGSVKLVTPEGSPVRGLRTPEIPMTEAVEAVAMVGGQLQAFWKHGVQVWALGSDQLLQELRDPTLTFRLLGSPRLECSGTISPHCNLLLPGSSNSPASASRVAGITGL

IC50 [nM] | Compound
10 to 100 | Cc1c(Nc2cc[nH]c(=O)c2C(=O)Nc2ccc(N3CCN(C)CC3)cc2)cnc2c1NCC(C)(C)O2 [Example 172, N-(4-(4-methylpiperazin-1-yl)phenyl)-2-oxo-4-((3,3,8-trimethyl-2,3-dihydro-1H-pyrido[2,3-b][1,4]oxazin-7-yl)amino)-1,2-dihydropyridine-3-carboxamide]
10 to 100 | Cc1c(Nc2cc[nH]c(=O)c2C(=O)Nc2ccc(-n3ccnc3)cc2)cnc2c1NCCO2 [Example 255, N-(4-(1H-imidazol-1-yl)phenyl)-4-((8-methyl-2,3-dihydro-1H-pyrido[2,3-b][1,4]oxazin-7-yl)amino)-2-oxo-1,2-dihydropyridine-3-carboxamide]
10 to 100 | Cc1c(Nc2cc[nH]c(=O)c2C(=O)Nc2ccc3c(c2)OCCO3)cnc2c1NCCO2 [Example 230, N-(2,3-dihydrobenzo[b][1,4]dioxin-6-yl)-4-((8-methyl-2,3-dihydro-1H-pyrido[2,3-b][1,4]oxazin-7-yl)amino)-2-oxo-1,2-dihydropyridine-3-carboxamide]
≤ 10 | Cc1c(Nc2cc[nH]c(=O)c2C(=O)Nc2ccc(N3CCC(O)(CN(C)C)CC3)cc2)cnc2c1NCCO2 [Example 375, N-(4-(4-((dimethylamino)methyl)-4-hydroxypiperidin-1-yl)phenyl)-4-((8-methyl-2,3-dihydro-1H-pyrido[2,3-b][1,4]oxazin-7-yl)amino)-2-oxo-1,2-dihydropyridine-3-carboxamide]
≤ 10 | Cc1c(Nc2cc[nH]c(=O)c2C(=O)Nc2ccc(N3CCN(C)CC3)c(N)c2)cnc2c1NCC(C)O2 (centres unmarked) [Example 294, N-(3-amino-4-(4-methylpiperazin-1-yl)phenyl)-4-((3,8-dimethyl-2,3-dihydro-1H-pyrido[2,3-b][1,4]oxazin-7-yl)amino)-2-oxo-1,2-dihydropyridine-3-carboxamide]
10 to 100 | CCC1CNc2c(ncc(Nc3cc[nH]c(=O)c3C(=O)Nc3ccc(N4CCN(C)CC4)cc3)c2C)O1 (centres unmarked) [Example 188, 4-((3-ethyl-8-methyl-2,3-dihydro-1H-pyrido[2,3-b][1,4]oxazin-7-yl)amino)-N-(4-(4-methylpiperazin-1-yl)phenyl)-2-oxo-1,2-dihydropyridine-3-carboxamide]
10 to 100 | Cc1c(Nc2cc[nH]c(=O)c2C(=O)Nc2ccc(N3CCN(C)CC3)c(C(F)(F)F)c2)cnc2c1NCC(C)O2 (centres unmarked) [Example 196, 4-((3,8-dimethyl-2,3-dihydro-1H-pyrido[2,3-b][1,4]oxazin-7-yl)amino)-N-(4-(4-methylpiperazin-1-yl)-3-(trifluoromethyl)phenyl)-2-oxo-1,2-dihydropyridine-3-carboxamide]
10 to 100 | Cc1c(Nc2cc[nH]c(=O)c2C(=O)Nc2ccc(S(C)(=O)=O)cc2)cnc2c1NCCO2 [Example 223, 4-((8-methyl-2,3-dihydro-1H-pyrido[2,3-b][1,4]oxazin-7-yl)amino)-N-(4-(methylsulfonyl)phenyl)-2-oxo-1,2-dihydropyridine-3-carboxamide]
10 to 100 | Cc1c(Nc2cc[nH]c(=O)c2C(=O)Nc2ccc(N3CCNC(=O)C3)cc2)cnc2c1NCCO2 [Example 268, 4-((8-methyl-2,3-dihydro-1H-pyrido[2,3-b][1,4]oxazin-7-yl)amino)-2-oxo-N-(4-(3-oxopiperazin-1-yl)phenyl)-1,2-dihydropyridine-3-carboxamide]
10 to 100 | Cc1c(Nc2cc[nH]c(=O)c2C(=O)Nc2ccc3c(c2)CN(C)CC3)cnc2c1NCCO2 [Example 163, N-(2-Methyl-1,2,3,4-tetrahydroisoquinolin-7-yl)-4-((8-methyl-2,3-dihydro-1H-pyrido[2,3-b][1,4]oxazin-7-yl)amino)-2-oxo-1,2-dihydropyridine-3-carboxamide]
10 to 100 | Cc1c(Nc2cc[nH]c(=O)c2C(=O)Nc2ccc(N3CCN(c4cncnc4)CC3)cc2)cnc2c1NCCO2 [Example 338, 4-((8-methyl-2,3-dihydro-1H-pyrido[2,3-b][1,4]oxazin-7-yl)amino)-2-oxo-N-(4-(4-(pyrimidin-5-yl)piperazin-1-yl)phenyl)-1,2-dihydropyridine-3-carboxamide]
≤ 10 | Cc1c(Nc2cc[nH]c(=O)c2C(=O)Nc2ccc(N3CCN(C(=O)C(C)(C)F)CC3)cc2)cnc2c1NCCO2 [Example 342, N-(4-(4-(2-fluoro-2-methylpropanoyl)piperazin-1-yl)phenyl)-4-((8-methyl-2,3-dihydro-1H-pyrido[2,3-b][1,4]oxazin-7-yl)amino)-2-oxo-1,2-dihydropyridine-3-carboxamide]
10 to 100 | Cc1c(Nc2cc[nH]c(=O)c2C(=O)Nc2ccc(N3CCN(C)CC3)cc2F)cnc2c1NCCO2 [Example 207, N-(2-fluoro-4-(4-methylpiperazin-1-yl)phenyl)-4-((8-methyl-2,3-dihydro-1H-pyrido[2,3-b][1,4]oxazin-7-yl)amino)-2-oxo-1,2-dihydropyridine-3-carboxamide]
100 to 1000 | CC(=O)Nc1ccc(NC(=O)c2c(Nc3cnc4c(c3C)NCCO4)cc[nH]c2=O)cn1 [Example 243, N-(6-acetamidopyridin-3-yl)-4-((8-methyl-2,3-dihydro-1H-pyrido[2,3-b][1,4]oxazin-7-yl)amino)-2-oxo-1,2-dihydropyridine-3-carboxamide]
100 to 1000 | Cc1c(Nc2cc[nH]c(=O)c2C(=O)Nc2ccc(N3CCN(C)CC3)c(C(=O)O)c2)cnc2c1NCCO2 [Example 215, 5-(4-((8-methyl-2,3-dihydro-1H-pyrido[2,3-b][1,4]oxazin-7-yl)amino)-2-oxo-1,2-dihydropyridine-3-carboxamido)-2-(4-methylpiperazin-1-yl)benzoic acid]
≤ 10 | Cc1c(Nc2cc[nH]c(=O)c2C(=O)Nc2ccc(N3CCN(CCN4CCOCC4)CC3)cc2)cnc2c1NCCO2 [Example 226, 4-((8-methyl-2,3-dihydro-1H-pyrido[2,3-b][1,4]oxazin-7-yl)amino)-N-(4-(4-(2-morpholinoethyl)piperazin-1-yl)phenyl)-2-oxo-1,2-dihydropyridine-3-carboxamide]
≤ 10 | Cc1c(Nc2cc[nH]c(=O)c2C(=O)Nc2ccc(C3CCN(C)CC3)cc2)cnc2c1NCCO2 [Example 97, 4-((8-methyl-2,3-dihydro-1H-pyrido[2,3-b][1,4]oxazin-7-yl)amino)-N-(4-(1-methylpiperidin-4-yl)phenyl)-2-oxo-1,2-dihydropyridine-3-carboxamide]
10 to 100 | Cc1c(Nc2cc[nH]c(=O)c2C(=O)Nc2ccc3nc[nH]c3c2)cnc2c1NCCO2 [Example 257, N-(1H-benzo[d]imidazol-6-yl)-4-((8-methyl-2,3-dihydro-1H-pyrido[2,3-b][1,4]oxazin-7-yl)amino)-2-oxo-1,2-dihydropyridine-3-carboxamide]
10 to 100 | Cc1c(Nc2cc[nH]c(=O)c2C(=O)Nc2ccc(N3CCN(C#N)CC3)cc2)cnc2c1NCCO2 [Example 352, N-(4-(4-cyanopiperazin-1-yl)phenyl)-4-((8-methyl-2,3-dihydro-1H-pyrido[2,3-b][1,4]oxazin-7-yl)amino)-2-oxo-1,2-dihydropyridine-3-carboxamide]
≤ 10 | Cc1c(Nc2cc[nH]c(=O)c2C(=O)Nc2ccc(N3CCN(C4CCCC4)CC3)cc2)cnc2c1NCCO2 [Example 147, N-(4-(4-cyclopentylpiperazin-1-yl)phenyl)-4-((8-methyl-2,3-dihydro-1H-pyrido[2,3-b][1,4]oxazin-7-yl)amino)-2-oxo-1,2-dihydropyridine-3-carboxamide]
10 to 100 | Cc1c(Nc2cc[nH]c(=O)c2C(=O)Nc2ccc(N3CCN(c4ccnc(C(=O)N(C)C)c4)CC3)cc2)cnc2c1NCCO2 [Example 365, N,N-dimethyl-4-(4-(4-(4-((8-methyl-2,3-dihydro-1H-pyrido[2,3-b][1,4]oxazin-7-yl)amino)-2-oxo-1,2-dihydropyridine-3-carboxamido)phenyl)piperazin-1-yl)picolinamide]
10 to 100 | COC(C)CN1CCN(c2ccc(NC(=O)c3c(Nc4cnc5c(c4C)NCCO5)cc[nH]c3=O)cc2)CC1 (centres unmarked) [Example 369, N-(4-(4-(2-methoxypropyl)piperazin-1-yl)phenyl)-4-((8-methyl-2,3-dihydro-1H-pyrido[2,3-b][1,4]oxazin-7-yl)amino)-2-oxo-1,2-dihydropyridine-3-carboxamide]
≤ 10 | Cc1c(Nc2cc[nH]c(=O)c2C(=O)Nc2ccc(N3CCN(c4ccn(C)n4)CC3)cc2)cnc2c1NCCO2 [Example 336, N-(4-(4-(1-methyl-1H-pyrazol-3-yl)piperazin-1-yl)phenyl)-4-((8-methyl-2,3-dihydro-1H-pyrido[2,3-b][1,4]oxazin-7-yl)amino)-2-oxo-1,2-dihydropyridine-3-carboxamide]
≤ 10 | COC1(CN(C)C)CCN(c2ccc(NC(=O)c3c(Nc4cnc5c(c4C)NCCO5)cc[nH]c3=O)cc2)CC1 [Example 392, N-(4-(4-((dimethylamino)methyl)-4-methoxypiperidin-1-yl)phenyl)-4-((8-methyl-2,3-dihydro-1H-pyrido[2,3-b][1,4]oxazin-7-yl)amino)-2-oxo-1,2-dihydropyridine-3-carboxamide]
≤ 10 | Cc1cc(NC(=O)c2c(Nc3cnc4c(c3C)NCC(C)O4)cc[nH]c2=O)ccc1N1CCN(C)CC1 (centres unmarked) [Example 200, 4-((3,8-dimethyl-2,3-dihydro-1H-pyrido[2,3-b][1,4]oxazin-7-yl)amino)-N-(3-methyl-4-(4-methylpiperazin-1-yl)phenyl)-2-oxo-1,2-dihydropyridine-3-carboxamide]
10 to 100 | Cc1c(Nc2cc[nH]c(=O)c2C(=O)Nc2ccc(N3CCN(C(=O)C(C)C)CC3)cc2)cnc2c1NCC(C)O2 (centres unmarked) [Example 335, 4-((3,8-dimethyl-2,3-dihydro-1H-pyrido[2,3-b][1,4]oxazin-7-yl)amino)-N-(4-(4-isobutyrylpiperazin-1-yl)phenyl)-2-oxo-1,2-dihydropyridine-3-carboxamide]
